Source: PMC3017052, “A Novel Peptide Derived from Human Apolipoprotein E Is an Inhibitor of Tumor Growth and Ocular Angiogenesis” (PLoS ONE, 2011)

Assays:
[1] = system: MDA-MB-231 tumor xenografts; test: Xenograft tumor growth assay in nude mice; format: in vivo
Protocol: In order to assess the in vivo effect of apoEdp on tumor growth, we established subcutaneous human breast cancer MDA-MB-231 tumor xenografts in nude mice. Once tumor size became ∼100 mm^3 in approximately 10 days, mice were randomly divided into two groups, and treated with PBS or apoEdp at 40 mg/kg/day for three consecutive days.
Figure 6 ApoEdp inhibits tumor growth in vivo. MDA-MB-231 breast cancer cells were used for anti-tumor studies. A suspension of 3×10^6 cells in 0.1 mL of PBS was injected in the right dorsal flank. Tumors were monitored weekly in two diameters with digital calipers. Tumor volumes were determined using A×B^2×0.52 (where A is the longest and B is the shortest diameter). Tumors were allowed to grow to ∼100 mm^3 and mice were randomized. Single intralesional administration daily of PBS or 40 mg/kg/day of apoEdp for 3 consecutive days was performed and then stopped. Representative photographs of mouse xenograft treated with (A) apoEdp or PBS are shown.
Female nu/nu mice (8–12 weeks old, weighing ∼20 g) were obtained from […] (Harlan, Indianapolis, IN). […] The growth of the tumor xenograft was evaluated by determining the tumor volume using digital calipers every 7 days. Tumor volume was calculated using the relationship A×B^2×0.52, where A is the longest diameter and B the shortest. […]

[2] = system: HUVEC; format: cell-based, human
Description: The cellular mechanisms of angiogenesis involve motility and alignment of ECs to form a capillary tube-like network on matrigel. Thus, we assessed whether or not apoEdp impaired EC differentiation in the tube formation assay as described in the Materials and Methods. The numbers of tubular structures (Fig. 3A) were quantitatively analyzed. […] “Percentage (%) of inhibition” in Fig. 3C is the mean number (± SEM) of tubules expressed as a proportion of that in the VEGF control group. ** p<0.01 and *** p<0.001.
Figure 3 ApoEdp inhibited capillary tubule formation (in vitro angiogenesis). […] Tubular structures were quantitated by manual counting under low power fields. […] (C) “Percentage (%) of inhibition” is the mean number (± SEM) of tubules expressed as a proportion of that in the VEGF control group. ** p<0.01 and *** p<0.001. […]
Matrigel (Sigma Aldrich, St Louis, MO) was thawed overnight on ice. […] After 12–16 hr, microtubule formation was assessed with an inverted photomicroscope and the images were photographed using Olympus U-RLF-T microscope. Manual counting at low power fields was used to quantitate tubular structures and percentage of inhibition was expressed using VEGF control wells as 100%.

[3] = system: VEGF-induced phosphorylation of Flk1, c-Src, Akt, eNOS, FAK, Erk1/2 in HUVECs; test: Western blot of VEGF-induced phosphorylation of angiogenic signaling molecules; format: cell-based, human; conditions: HUVEC, apoEdp 6–50 µM pre-treated 1 hr, VEGF 10 ng/mL 10 min, n = 5
Protocol: Figure 7 Inhibition by apoEdp of VEGF-induced Flk-1. HUVECs were pre-treated with apoEdp at the indicated concentrations for 1 hr; VEGF (10 ng/mL) added and incubated at 37°C for 10 min, to measure the phosphorylation of Flk-1(7-A), c-Src(7-B), Akt(7-C), eNOS(7-D), FAK(7-E), and Erk1/2(7-F). Equal loading of total proteins was also measured as described in Materials and Methods. Values were normalized by arbitrarily setting the densitometry of control cell signals 1.0 (mean ± SEM, n = 5). The asterisks indicate significant differences compared with VEGF stimulation (*p<0.05, **p<0.01 and ***p<0.001).
Confluent HUVECs were grown in EBM-2 supplemented with 1% FBS for 24 hr and the medium was replaced with fresh low serum (1% FBS) media in the presence or absence of varying concentrations of apoEdp (6–50 µM). After 1 hr, VEGF was added to a concentration of 10 ng/mL and incubated for 10 min so that the phosphorylated forms of angiogenic signaling molecules could be detected. The cells were then lysed, quantified for protein concentration, and separated on 4–20% pre-cast SDS–PAGE gels. Western blots of control and treated lysates were performed with antibodies against the phospho form of Flk-1, c-Src, FAK, ERK1/2, Akt, and eNOS. […] All primary and secondary antibodies were obtained from Santa Cruz Biotechnology (Santa Cruz, CA).

Ac-LRKLRKRLLLRKLRKRLL-NH2 [apoEdp]
Tumor growth in MDA-MB-231 xenograft ([1]; nude (nu/nu) mice, 40 mg/kg/day intralesional for 3 consecutive days, compared to PBS-treated controls): significantly inhibited tumor growth
Observable toxicity during treatment ([1]; nude mice, 40 mg/kg/day for 3 days, data not shown): no sign of observable toxicity
IC50 [2]: 9 µM
VEGF-induced phosphorylation of Flk1, c-Src, Akt, eNOS, FAK and Erk1/2 [3]: significantly inhibited
